# pIC50: −log10 of the molar value. Read-outs that look alike come from different tables or passages of the source.
# Tests used:
# [1] = biological target: T1, recombinant full-length human GSK3β (Homo sapiens, UniProt P49841); assay: Luciferase-coupled cell-free GSK3β kinase assay; assay type: biochemical
# T1 construct: recombinant full-length human GSK3β (Upstate); purchased Upstate
# Procedure: For compounds in Tables 1 and 2, IC50 (μM) for GSK3β enzyme in cell free assay is provided as follows:
# Luciferase-Coupled Protein Kinase Assays
# All coupled-luciferase assays are performed by using a brief incubation with firefly luciferase (Promega) after completion of the kinase assay. KinaseGlo Plus is used for reading kinase reactions with ATP>10 μM, KinaseGlo for ATP <10 μM. The assay volume in a 384-well plate for the kinase reaction is 30 microliters.
# 10-25 ng of recombinant full-length human GSK3β (Upstate) is incubated in the presence or absence of compound at varying concentrations for 1 hour at 30 degrees Celsius in 20 mM MOPS, pH 7.0, 10 mM magnesium acetate, 0.2 mM EDTA, 2 mM EGTA, 30 mM magnesium chloride, 62.5 μM phospho-glycogen synthase peptide-2, 5 μM ATP, 10 mM β-glycerol phosphate, 1 mM sodium orthovanadate and 1 mM dithiothreitol. Proceed to KinaseGlo luciferase reaction (see below).
# Following the completion of the kinase reaction an equal volume of KinaseGlo or KinaseGlo Plus luciferase reagent (Promega) is added and the luminescence read using a luminescence plate reader within 5-10 minutes. Compound activity is expressed as % inhibition relative to maximal inhibition observed at the maximal dose and IC50 values then calculated using curve fitting software (GraphPad Prizm).
# E. coli, ATCC8739 = assay: Antibacterial activity (MIC), E. coli; assay type: cell-based; details: Escherichia coli, E. coli ATCC8739
# From the text: (§1) As used herein, a minimum inhibitory concentration (MIC) for bacterial growth assay is the lowest level of a compound needed to cause an inhibition to bacterial growth in culture medium. In certain embodiments, the antibacterial activity of compounds herein, measured as MIC.
# (§2) In certain embodiments, GSK3 inhibitors provided herein are substantially free of antibacterial activity or having very low antibacterial activity. The antibacterial activity can be measured by methods known in the art by estimating a minimum inhibitory concentration (MIC) for test compounds. A MIC is the lowest level of a compound needed to cause an inhibition to bacterial growth in a culture medium. […] (Clinical and Laboratory Standards Institute. Methods for Dilution Antimicrobial Susceptibility Tests for Bacteria That Grow Aerobically; Approved Standard-Sixth Edition: CLSI document […]. CLSI, Wayne, Pa. (2003))
# (§3) Antibacterial activity for E. coli, ATCC8739 andS. aureus Smith expressed as MIC (μM) is provided as follows: […]
# S. aureus Smith = assay: Antibacterial activity (MIC), S. aureus; assay type: cell-based; details: Staphylococcus aureus
# From the text: as §1, §2, §3
# [2] = ATCC8739, Table 2, read-out: Antimicrobial MIC [μM] E. Coli
# [3] = Table 2, S. aureus Smith, read-out: Antimicrobial MIC [μM] S. aureus
# [4] = ATCC8739, Table 1, read-out: Antibacterial MIC (μM) E.Coli
# [5] = Table 1, read-out: Antibacterial MIC (μM) S. aureus Smith
# T1 sequence (P49841 whole entry): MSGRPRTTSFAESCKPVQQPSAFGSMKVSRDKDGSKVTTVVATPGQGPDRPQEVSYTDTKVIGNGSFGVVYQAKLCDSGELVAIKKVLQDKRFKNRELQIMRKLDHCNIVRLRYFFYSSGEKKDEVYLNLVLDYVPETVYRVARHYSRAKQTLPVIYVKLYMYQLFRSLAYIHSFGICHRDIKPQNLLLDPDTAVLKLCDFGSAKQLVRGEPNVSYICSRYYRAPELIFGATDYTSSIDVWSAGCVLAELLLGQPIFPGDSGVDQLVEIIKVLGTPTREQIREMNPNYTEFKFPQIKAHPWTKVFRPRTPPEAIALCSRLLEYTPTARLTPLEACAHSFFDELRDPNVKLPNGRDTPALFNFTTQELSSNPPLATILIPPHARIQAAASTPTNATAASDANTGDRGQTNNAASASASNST
SMILES,pIC50 ([1]; Table 2),"MIC (E. coli, ATCC8739; [2]) [µM]",MIC (S. aureus Smith; [3]) [µM],pIC50 ([1]; Table 1),"MIC (E. coli, ATCC8739; [4]) [µM]",MIC (S. aureus Smith; [5]) [µM]
C[C@H]1COc2c(NCCCC3CCCCC3)c(F)c(N)c3c(=O)c(C(=O)O)cn1c23 [Example 103],> 7.00,10 to 50,10 to 50,–,–,–
Nc1c(F)c(NCCNc2ccccn2)c2c3c1c(=O)c(C(=O)O)cn3[C@@H](Cc1ccccc1)CO2 [Example 120],6.30 to 7.00,10 to 50,10 to 50,–,–,–
COc1c(NCCNc2ccccn2)c(Cl)c(N)c2c(=O)c(C(=O)O)cn(C3CC3)c12 [Example 121],> 7.00,10 to 50,0.5 to 10,–,–,–
CCOC(=O)CCNc1c(F)c(N)c2c(=O)c(C(=O)O)cn(C3CC3)c2c1OC [Example 122],6.00 to 6.30,10 to 50,0.5 to 10,–,–,–
COc1c(NCCNc2ccccn2)c(F)c(N)c2c(=O)c(C(=O)O)c(C)n(C3CC3)c12 [Example 123],> 7.00,> 50,> 50,–,–,–
Nc1c(F)c(NCCNc2ccccn2)c2c3c1c(=O)c(C(=O)O)cn3[C@@H](c1ccccc1)CO2 [Example 124],6.30 to 7.00,10 to 50,10 to 50,–,–,–
CCOC(=O)CCNc1c(F)c(N)c2c(=O)ccn(C3CC3)c2c1OC [Example 125],6.30 to 7.00,> 50,> 50,–,–,–
Nc1c(F)c(NC(=O)CCc2ccccc2)c(F)c2c1c(=O)c(C(=O)O)cn2C1CC1 [Example 126],< 6.00,0.5 to 10,0.5 to 10,–,–,–
Cc1c(C(=O)O)c(=O)c2c(N)c(F)c(NCCNc3ccccn3)c(OC(C)C)c2n1C1CC1 [Example 127],6.30 to 7.00,10 to 50,0.5 to 10,–,–,–
CSc1c(F)c(NCCNc2ccccn2)c(F)c2c1c(=O)c(C(=O)O)cn2C1CC1 [Example 128],–,0.5 to 10,0.5 to 10,–,–,–
COc1c(NCCNc2ccccn2)c(F)c(N)c2c(=O)c(C(=O)O)cn(C)c12 [Example 129],6.30 to 7.00,10 to 50,10 to 50,–,–,–
COc1c(NCCNc2ccccn2)c(F)c(N)c2c(=O)c(C(=O)O)cn(Cc3ccccc3)c12 [Example 130],< 6.00,0.5 to 10,0.5 to 10,–,–,–
O=C(O)c1cn(C2CC2)c2c(F)c(NCCNc3ccccn3)c(F)c(S)c2c1=O [Example 131],> 7.00,0.5 to 10,0.5 to 10,–,–,–
COc1c(OCCNc2ccccn2)c(F)c(N)c2c(=O)c(C(=O)O)cn(C3CC3)c12 [Example 132],< 6.00,0.5 to 10,< 0.5,–,–,–
Nc1c(F)c(NCCNc2ccccn2)cc2c1c(=O)c(C(=O)O)cn2C1CC1 [Example 133],> 7.00,0.5 to 10,< 0.5,–,–,–
Nc1c(F)c(NCCNc2ccccn2)c2c3c1c(=O)c(C(=O)O)cn3[C@@H](CF)CO2 [Example 134],> 7.00,< 0.5,< 0.5,–,–,–
Nc1c(F)c(NCCNc2ccccn2)cc2c1c(=O)c(C(=O)O)cn2C1CCOCC1 [Example 135],> 7.00,10 to 50,10 to 50,–,–,–
Nc1c(F)c(NCCNc2ccccn2)c(F)c2c1c(=O)cc(C(=O)O)n2C1CC1 [Example 136],< 6.00,> 50,> 50,–,–,–
COc1c(NCCNc2ccc(C(=O)O)cn2)c(F)c(N)c2c(=O)ccn(C3CC3)c12 [Example 137],> 7.00,> 50,> 50,–,–,–
COc1c(NCCNc2ccc(C(=O)O)cn2)c(F)c(N)c2c(=O)c(C(=O)O)cn(C3CC3)c12 [Example 138],> 7.00,> 50,> 50,–,–,–
NC1=C2C(=O)C(C(=O)O)=CN3CCCCOC(C(NCCNc4ccccn4)=C1F)C23 (centres unmarked) [Example 140],6.00 to 6.30,> 50,> 50,–,–,–

SMILES,pIC50 ([1]; Table 2),"MIC (E. coli, ATCC8739; [2]) [µM]",MIC (S. aureus Smith; [3]) [µM],pIC50 ([1]; Table 1),"MIC (E. coli, ATCC8739; [4]) [µM]",MIC (S. aureus Smith; [5]) [µM]
COc1c(NCCNc2ccccn2)c(F)c(NC(=O)C(F)(F)F)c2c(=O)c(C#N)cn(C3CC3)c12 [Example 141],> 7.00,0.5 to 10,0.5 to 10,–,–,–
COc1c(NCCNc2ccccn2)c(F)c(N)c2c(=O)c(C#N)cn(C3CC3)c12 [Example 142],> 7.00,> 50,> 50,–,–,–
COc1c(NCCCc2ccccc2)c(F)c(N)c2c(=O)ccn(C3CC3)c12 [compound 1],6.30 to 7.00,10 to 50,10 to 50,–,–,–
Nc1c(F)c(NCCc2ccccc2)c(F)c2c1c(=O)c(C(=O)O)cn2C1CC1 [compound 1],–,–,–,6.30 to 7.00,0.5 to 10,< 0.5
COc1c(NCCCn2ccnc2)c(F)c(N)c2c(=O)ccn(C3CC3)c12 [compound 2],6.30 to 7.00,> 50,> 50,–,–,–
CC1COc2c(NCCc3ccncc3)c(F)c(N)c3c(=O)c(C(=O)O)cn1c23 (centres unmarked) [compound 3],6.30 to 7.00,0.5 to 10,0.5 to 10,–,–,–
Nc1c(F)c(NCCc2ccncc2)c(F)c2c1c(=O)c(C(=O)O)cn2C1CC1 [compound 3],–,–,–,6.30 to 7.00,0.5 to 10,< 0.5
CC(C)OCCCNc1c(F)c(N)c2c(=O)c(C(=O)O)cn3c2c1OCC3C (centres unmarked) [compound 4],6.30 to 7.00,> 50,0.5 to 10,–,–,–
CC1COc2c(NCCCN3CCCC3=O)c(F)c(N)c3c(=O)c(C(=O)O)cn1c23 (centres unmarked) [compound 5],> 7.00,> 50,0.5 to 10,–,–,–
Nc1c(F)c(NCCc2ccc(F)cc2)c(F)c2c1c(=O)c(C(=O)O)cn2C1CC1 [compound 5],–,–,–,6.30 to 7.00,0.5 to 10,< 0.5
C[C@H]1COc2c(NCCCc3ccccc3)c(F)c(N)c3c(=O)c(C(=O)O)cn1c23 [compound 29],> 7.00,10 to 50,–,–,–,–
C[C@H]1COc2c(NCCOc3ccc(Cl)cc3)c(F)c(N)c3c(=O)c(C(=O)O)cn1c23 [compound 83],> 7.00,–,–,–,–,–
Cc1cc(OCCNc2c(F)c(N)c3c(=O)c(C(=O)O)cn4c3c2OC[C@@H]4C)ccc1Cl [compound 84],> 7.00,–,–,–,–,–
Cc1ccc(C(C)C)c(OCCNc2c(F)c(N)c3c(=O)c(C(=O)O)cn4c3c2OC[C@@H]4C)c1 [compound 85],6.30 to 7.00,–,–,–,–,–
CNNC(=O)c1cn(C2CC2)c2c(F)c(NCCCc3ccccc3)c(F)c(N)c2c1=O [compound 86],–,–,–,< 6.00,–,–
COc1ccc(OCC(C)Nc2c(F)c(N)c3c(=O)c(C(=O)O)cn4c3c2OC[C@@H]4C)cc1 (some centres unmarked) [compound 86],6.00 to 6.30,–,–,–,–,–
CC(CCc1ccccc1Cl)Nc1c(F)c(N)c2c(=O)c(C(=O)O)cn3c2c1OC[C@@H]3C (some centres unmarked) [compound 88],6.30 to 7.00,–,–,–,–,–
CC1COc2c(NCCCOc3ccccc3)c(F)c(N)c3c(=O)c(C(=O)O)cn1c23 (centres unmarked) [compound 88],–,–,–,6.30 to 7.00,–,–
CC1COc2c(NCCCn3ccnc3)c(F)c(N)c3c(=O)c(C(=O)O)cn1c23 (centres unmarked) [compound 89],–,–,–,> 7.00,–,–
COc1cccc(CCCNc2c(F)c(N)c3c(=O)c(C(=O)O)cn4c3c2OC[C@@H]4C)c1 [compound 89],> 7.00,–,–,–,–,–
CC1Cc2ccccc2N1C(=O)CCCNc1c(F)c(N)c2c(=O)c(C(=O)O)cn3c2c1OC[C@@H]3C (some centres unmarked) [compound 90],6.00 to 6.30,–,–,–,–,–
